Measured values: patent EP4707277A1, “NOVEL HETEROCYCLIC AMINE DERIVATIVES AND PHARMACEUTICAL COMPOSITION COMPRISING SAME” (Daewoong Pharmaceutical Co., Ltd., priority 2023, dated 2024)
Read-outs that look alike come from different tables or passages of the source.

What was measured:
[1] = molecular target: T1, BTK (Homo sapiens, UniProt Q06187); assay: Inhibitory activity against BTK, ADP-Glo Kinase system (Promega); type: biochemical
T1 construct: purchased Signalchem B10-10H
Description: (§1) Inhibitory activities against BTK and ITK were measured for the compounds prepared in the above Examples as follows.
(§2) The inhibitory activities against BTK and ITK were evaluated using 'ADP-Glo™ Kinase system' (Promega Corporation). In the case of this evaluation method, activation was measured by quantifying the amount of ADP produced during the kinase reaction, which was utilized to measure the inhibitory activities against BTK and ITK.
(§3) Specifically, the inhibitory activities against BTK and ITK were measured using BTK kinase (Signalchem, B10-10H), ITK kinase (Signalchem, I13-11G-10), and ADP-Glo kinase assay kit (Promega, V9102). Recombinant purified human BTK and ITK were diluted with 1 x kinase reaction buffer (40 mM Tris-Cl, pH 7.5, 20 mM MgCl2, 0.1 mg/mL BSA, 2 mM MnCl2 and 50 uM DTT) and added to a 96 well plate (ITK: final concentration of 4 ng per reaction/BTK: final concentration of 10 ng per reaction). The compounds prepared in the previous Examples were treated so as to be finally a 1% DMSO aqueous solution, and a substrate cocktail containing ATP (1mM or Km ATP (BTK: 10 uM /ITK: 25uM)) and 0.2 ug/ul of Poly (Glu4,Tyr1) peptide (BTK and ITK final concentration) in the total 25 uL reactants was added to a 96-well plate to initiate enzymatic reaction. After incubation (30°C) for 1 hour, equivalent volume (25 uL per reaction) of ADP Glo was added, and incubated (30°C) for 40 minutes at room temperature. Then, a kinase detection reagent (45 uL per reaction) was added, and incubated (30°C) for 30 minutes at room temperature. The kinase activity was measured by chemiluminescence according to the instructions of ADP Glo kinase assay kit, and the inhibitory activity of the compounds according to the present disclosure was calculated. For the analysis of the results of each compound, Microsoft Excel was used, and IC50 values were calculated by GraphPad Prism software.

[2] = molecular target: T2, ITK (Homo sapiens, UniProt Q08881); assay: Inhibitory activity against ITK, ADP-Glo Kinase system (Promega); type: biochemical
T2 construct: purchased Signalchem I13-11G-10
T2 sequence (Q08881 1-620): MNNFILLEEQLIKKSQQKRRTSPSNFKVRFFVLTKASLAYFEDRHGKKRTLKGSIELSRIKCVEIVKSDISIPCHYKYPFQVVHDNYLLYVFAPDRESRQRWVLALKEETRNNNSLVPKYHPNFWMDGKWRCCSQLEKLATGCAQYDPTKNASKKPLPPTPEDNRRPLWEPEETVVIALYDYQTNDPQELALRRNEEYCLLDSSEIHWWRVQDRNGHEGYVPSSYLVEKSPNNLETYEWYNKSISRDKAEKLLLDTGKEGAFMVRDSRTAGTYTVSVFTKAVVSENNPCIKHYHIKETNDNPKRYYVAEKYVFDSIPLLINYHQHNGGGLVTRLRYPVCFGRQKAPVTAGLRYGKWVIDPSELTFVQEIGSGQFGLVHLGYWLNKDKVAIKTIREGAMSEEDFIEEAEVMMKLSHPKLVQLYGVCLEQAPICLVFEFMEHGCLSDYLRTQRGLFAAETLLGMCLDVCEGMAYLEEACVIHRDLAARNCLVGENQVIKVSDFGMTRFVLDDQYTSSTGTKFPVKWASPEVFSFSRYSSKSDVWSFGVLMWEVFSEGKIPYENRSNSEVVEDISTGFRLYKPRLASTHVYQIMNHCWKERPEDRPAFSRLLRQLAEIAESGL
Description: as §1, §2, §3

[3] = 1mM ATP, read-out: BTK IC50(nM) 1mM ATP
[4] = 1mM ATP, read-out: ITK IC50(nM) 1mM ATP
[5] = Km ATP (BTK: 10 uM), read-out: BTK IC50(nM) Km ATP
[6] = Km ATP (ITK: 25uM), read-out: ITK IC50(nM) Km ATP

T1 sequence (Q06187 whole entry): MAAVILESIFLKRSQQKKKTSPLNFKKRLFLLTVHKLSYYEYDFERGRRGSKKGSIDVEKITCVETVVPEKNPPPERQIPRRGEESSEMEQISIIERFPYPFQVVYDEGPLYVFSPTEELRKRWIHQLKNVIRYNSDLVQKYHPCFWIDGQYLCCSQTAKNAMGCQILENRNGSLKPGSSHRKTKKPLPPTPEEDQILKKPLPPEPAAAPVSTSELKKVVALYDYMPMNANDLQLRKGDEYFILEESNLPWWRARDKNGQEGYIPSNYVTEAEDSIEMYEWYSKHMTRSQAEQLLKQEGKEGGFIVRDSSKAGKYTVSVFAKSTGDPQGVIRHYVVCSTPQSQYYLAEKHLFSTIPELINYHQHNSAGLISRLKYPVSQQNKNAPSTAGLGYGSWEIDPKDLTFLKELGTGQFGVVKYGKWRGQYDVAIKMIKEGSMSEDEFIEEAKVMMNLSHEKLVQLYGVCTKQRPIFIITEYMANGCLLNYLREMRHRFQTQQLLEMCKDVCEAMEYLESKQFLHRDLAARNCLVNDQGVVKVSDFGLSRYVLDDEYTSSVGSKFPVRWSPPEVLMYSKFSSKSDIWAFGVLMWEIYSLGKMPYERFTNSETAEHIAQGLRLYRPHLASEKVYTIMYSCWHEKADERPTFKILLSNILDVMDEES

Row | IC50 [1, 3] [nM] | IC50 [2, 4] [nM] | IC50 [1, 5] [nM] | IC50 [2, 6] [nM] | SMILES
1 | ≤ 20 | 20 to 100 |  |  | C=CC(=O)N1CC[C@H]1COc1nc(Nc2ncc(C)s2)cc2c1ccn2C(C)C [Example 86, (S)-1-(2-(((1-isopropyl-6-((5-methylthiazol-2-yl)amino)-1H-pyrrolo[3,2-c]pyridin-4-yl)oxy)methyl)azetidin-1-yl)prop-2-en-1-one]
2 | 20 to 100 | 100 to 500 |  |  | C=CC(=O)N1CC[C@H](COc2nc(Nc3ncc(C)s3)cc3c2ccn3CC(C)C)C1 [Example 216, (S)-1-(3-(((1-isobutyl-6-((5-methylthiazol-2-yl)amino)-1H-pyrrolo[3,2-c]pyridin-4-yl)oxy)methyl)pyrrolidin-1-yl)prop-2-en-1-one]
3 | ≤ 20 | ≤ 20 |  |  | C=CC(=O)N1C[C@H](F)[C@H](Oc2nc(Nc3ncc(C)s3)cc3c2ccn3CC(C)CC)C1 (stereo partly drawn) [Example 171, 1-((3S,4R)-3-fluoro-4-((1-(2-methylbutyl)-6-((5-methylthiazol-2-yl)amino)-1H-pyrrolo[3,2-c]pyridin-4-yl)oxy)pyrrolidin-1-yl)prop-2-en-1-one]
4 | ≤ 20 | ≤ 20 |  |  | C=CS(=O)(=O)N1C[C@H](F)[C@H](Oc2nc(Nc3ncc(C)s3)cc3c2ccn3CC(C)C)C1 [Example 228, N-(4-(((3R,4S)-4-fluoro-1-(vinylsulfonyl)pyrrolidin-3-yl)oxy)-1-isobutyl-1H-pyrrolo[3,2-c]pyridin-6-yl)-5-methylthiazol-2-amine]
5 | ≤ 20 | 20 to 100 |  |  | C=CC(=O)N1CCC[C@H](Oc2nc(Nc3ncc(C)s3)cc3c2ccn3C)C1 [Example 158, (S)-1-(3-((1-methyl-6-((5-methylthiazol-2-yl)amino)-1H-pyrrolo[3,2-c]pyridin-4-yl)oxy)piperidin-1-yl)prop-2-en-1-one]
6 | 20 to 100 | > 500 |  |  | C=CC(=O)N1CCC[C@@H](COc2nc(Nc3ncc(C)s3)cc3c2ccn3CC(C)C)C1 [Example 214, (R)-1-(3-(((1-isobutyl-6-((5-methylthiazol-2-yl)amino)-1H-pyrrolo[3,2-c]pyridin-4-yl)oxy)methyl)piperidin-1-yl)prop-2-en-1-one]
7 | 20 to 100 | 100 to 500 | ≤ 20 | ≤ 20 | C=CC(=O)N1CC=C(c2nc(Nc3ncc(C)s3)cc3c2ccn3CC(C)C)CC1 [Example 6, 1-(4-(1-isobutyl-6-((5-methylthiazol-2-yl)amino)-1H-pyrrolo[3,2-c]pyridin-4-yl)-3,6-dihydropyridin-1(2H)-yl)prop-2-en-1-one]
8 | 20 to 100 | > 500 |  |  | C=CC(=O)N1CCC[C@H]1COc1nc(Nc2ncc(C)s2)cc2c1ccn2CC(C)C [Example 85, (S)-1-(2-(((1-isobutyl-6-((5-methylthiazol-2-yl)amino)-1H-pyrrolo[3,2-c]pyridin-4-yl)oxy)methyl)pyrrolidin-1-yl)prop-2-en-1-one]
9 |  |  | ≤ 20 | ≤ 20 | C=CC(=O)N1CCC=C(c2nc(Nc3ncc(C)s3)cc3c2ccn3C(C)C)CC1 [Example 26, 1-(4-(1-isopropyl-6-((5-methylthiazol-2-yl)amino)-1H-pyrrolo[3,2-c]pyridin-4-yl)-2,3,6,7-tetrahydro-1H-azepin-1-yl)prop-2-en-1-one]
10 | ≤ 20 | ≤ 20 |  |  | C=CC(=O)N1CC[C@H](Oc2nc(Nc3ncc(C)s3)cc3c2ccn3CCCF)C1 [Example 190, (S)-1-(3-((1-(3-fluoropropyl)-6-((5-methylthiazol-2-yl)amino)-1H-pyrrolo[3,2-c]pyridin-4-yl)oxy)pyrrolidin-1-yl)prop-2-en-1-one]
11 |  |  | ≤ 20 | ≤ 20 | C=CC(=O)Nc1cccc(-c2nc(Nc3ncc(C)s3)cc3c2ccn3C)c1OC [Example 52, N-(2-methoxy-3-(1-methyl-6-((5-methylthiazol-2-yl)amino)-1H-pyrrolo[3,2-c]pyridin-4-yl)phenyl)acrylamide]
12 |  |  | 20 to 100 | ≤ 20 | C=CC(=O)N1CC=C(c2nc(Nc3ncc(C)s3)cc3c2ccn3CCC(C)(C)C)CC1 [Example 18, 1-(4-(1-(3,3-dimethylbutyl)-6-((5-methylthiazol-2-yl)amino)-1H-pyrrolo[3,2-c]pyridin-4-yl)-3,6-dihydropyridin-1(2H)-yl)prop-2-en-1-one]

Continued, compound first:

Row | SMILES | IC50 [1, 3] [nM] | IC50 [2, 4] [nM] | IC50 [1, 5] [nM] | IC50 [2, 6] [nM]
13 | C=CC(=O)N1C[C@H](F)[C@H](Oc2nc(Nc3ncc(C)s3)cc3c2ccn3CC2CC2)C1 [Example 107, 1-((3R,4S)-3-((1-(cyclopropylmethyl)-6-((5-methylthiazol-2-yl)amino)-1H-pyrrolo[3,2-c]pyridin-4-yl)oxy)-4-fluoropyrrolidin-1-yl)prop-2-en-1-one] | ≤ 20 | ≤ 20 |  | 
14 | C=CC(=O)N1CC(Oc2nc(Nc3ncc(C)s3)cc3c2ccn3C(C)C)C1 [Example 80, 1-(3-((1-isopropyl-6-((5-methylthiazol-2-yl)amino)-1H-pyrrolo[3,2-c]pyridin-4-yl)oxy)azetidin-1-yl)prop-2-en-1-one] | ≤ 20 | ≤ 20 | ≤ 20 | ≤ 20
15 | C=CC(=O)N1CC(C)(Oc2nc(Nc3ncc(C)s3)cc3c2ccn3CCOC)C1 [Example 168, 1-(3-((1-(2-methoxyethyl)-6-((5-methylthiazol-2-yl)amino)-1H-pyrrolo[3,2-c]pyridin-4-yl)oxy)-3-methylazetidin-1-yl)prop-2-en-1-one] | > 500 | > 500 |  | 
16 | C=CC(=O)N1CCC[C@H](Oc2nc(Nc3ncc(C)s3)cc3c2ccn3C(C)C)C1 [Example 84, (S)-1-(3-((1-isopropyl-6-((5-methylthiazol-2-yl)amino)-1H-pyrrolo[3,2-c]pyridin-4-yl)oxy)piperidin-1-yl)prop-2-en-1-one] | ≤ 20 | 20 to 100 |  | 
17 | C=CC(=O)N1C[C@@H](F)[C@H](Oc2nc(Nc3ncc(C)s3)cc3c2ccn3CC2CC2)C1 [Example 108, 1-((3R,4R)-3-((1-(cyclopropylmethyl)-6-((5-methylthiazol-2-yl)amino)-1H-pyrrolo[3,2-c]pyridin-4-yl)oxy)-4-fluoropyrrolidin-1-yl)prop-2-en-1-one] | ≤ 20 | ≤ 20 |  | 
18 | C=CC(=O)N1C[C@H](F)[C@H](Oc2nc(Nc3ncc(C)s3)cc3c2ccn3CC(C)(C)O)C1 [Example 141, 1-((3S,4R)-3-fluoro-4-((1-(2-hydroxy-2-methylpropyl)-6-((5-methylthiazol-2-yl)amino)-1H-pyrrolo[3,2-c]pyridin-4-yl)oxy)pyrrolidin-1-yl)prop-2-en-1-one] | ≤ 20 | ≤ 20 |  | 
19 | C=CC(=O)N1CC=C(c2nc(Nc3ncc(C)s3)cc3c2ccn3C(C)C)CC1 [Example 2, 1-(4-(1-isopropyl-6-((5-methylthiazol-2-yl)amino)-1H-pyrrolo[3,2-c]pyridin-4-yl)-3,6-dihydropyridin-1(2H)-yl)prop-2-en-1-one] | 20 to 100 | 20 to 100 | ≤ 20 | ≤ 20
20 | C=CC(=O)N1C[C@H](F)[C@H](Oc2nc(Nc3ncc(C)s3)cc3c2ccn3C)C1 [Example 131, 1-((3S,4R)-3-fluoro-4-((1-methyl-6-((5-methylthiazol-2-yl)amino)-1H-pyrrolo[3,2-c]pyridin-4-yl)oxy)pyrrolidin-1-yl)prop-2-en-1-one] | ≤ 20 | ≤ 20 |  | 
21 | C=CC(=O)N1C[C@H](F)[C@H](Oc2nc(Nc3ncc(C(=O)NC)s3)cc3c2ccn3CC(C)C)C1 [Example 182, 2-((4-(((3R,4S)-1-acryloyl-4-fluoropyrrolidin-3-yl)oxy)-1-isobutyl-1H-pyrrolo[3,2-c]pyridin-6-yl)amino)-N-methylthiazole-5-carboxamide] | ≤ 20 | ≤ 20 |  | 
